Where two headings read alike, the source gives them in different places.
Columns and labels:
[1] = system: MCF-7 (breast); experiment: Trypan-blue exclusion assay, MCF-7; format: cell-based
[2] = system: CEM T-cell acute lymphoblastic leukemia cell line; experiment: Trypan-blue exclusion assay, CEM; format: cell-based; details: Homo sapiens, read-out: IC50 (μM), CEM leukemia
Protocol: (§1) Compounds such as desoxymorellin, gambogic acid, gambogin and 17 were further evaluated in a panel of solid and non-solid tumor cell lines. CEM cells were plated in a 24-well plate in complete media at 50×10^3 cells/well. Cells were treated with gambogin at concentrations of 0.25, 0.5, 1.0 μM or with 0.1% DMSO (control cells). Cells were incubated for 4 days and then the number of viable cells was determined after the addition of trypan-blue dye by counting the cells which exclude trypan-blue in a hemocytometer. Data for inhibition of cell proliferation is provided in.

[3] = Animal study, body weight/toxicity in SCID mice injected with primary human leukemia cells; format: in vivo; details: IV injections
Protocol: SCID mice were injected with primary human leukemia cells. Seven days following injection of leukemia cells, mice were given IV injections of gambogic acid, gambogic acid analog (17), or PBS (control). Each treatment group contained 3 mice which were monitored for body weight upon each injection.

[4] = system: HL-60/ADR cells (multidrug resistant clone, mdr-1 transfected); experiment: 3H-thymidine incorporation assay, HL-60/ADR; format: cell-based; details: 48 h incubation, 3H-thymidine pulse 6 h, read-out: IC50, inhibition of cell proliferation, HL-60/ADR
Protocol: (§2) The ability of the compounds to inhibit cancer cell growth was evaluated in promyelocytic leukemia cell line, HL-60, using a ^3H-thymidine incorporation assay. Cells were plated in a 96-well plate at 10-20×10^3 cells/well in RPMI supplemented with 10% fetal bovine serum, 2 mM glutamine, 1% penicillin/streptomycin (complete medium). The caged Garcinia xanthones were added to the cells at increasing concentrations and 0.1% DMSO was added to control cells. Cells were incubated for 48 h and then pulsed with ^3H-thymidine for 6 h. Incorporation of ^3H-thymidine was determined in a scintillation counter (Beckman Coulter Inc., Fullerton, Calif.) after cells were washed and deposited onto glass microfiber filters using a cell harvester M-24 (Brandel, Gaithersburg, Md.). Table 1 provides IC50 values for the natural products gambogic acid and gambogin, forbesione and deoxymorellin.
The compounds were also evaluated in HL-60/ADR cells, a multidrug resistant clone obtained by transfection of HL-60 cells with mdr-1. (See, A. Batova, L. E. Shao, M. B. Diccianni, A. L. Yu, T. Tanaka, A. Rephaeli, A. Nudelman and J. Yu, Blood, 2002, 100, 3319-24). […] Without being bound to any particular theory, it is believed that the caged Garcinia xanthones are not subject to the mechanism of chemo-resistance resulting from the expression of mdr, characteristic of many relapsed cancers. (See, M. M. Gottesman and I. Pastan, Annu. Rev. Biochem., 1993, 62, 385-427; S. Simon, D. Roy and M. Schindler, PNAS, 1994, 91, 1128-1132 and A. K. Larsen, A. E. Escargeuil and A. Skladanowski, Pharmacol. Ther., 2000, 85, 217-229).

[5] = system: M21 (melanoma); experiment: Trypan-blue exclusion assay, M21; format: cell-based
Protocol: as §1

[6] = system: HL-60 promyelocytic leukemia cell line; experiment: 3H-thymidine incorporation assay, HL-60; format: cell-based; details: HL-60, 48 h incubation, 3H-thymidine pulse 6 h, read-out: IC50, inhibition of cell proliferation, HL-60
Protocol: as §2

[7] = system: A549 (lung); experiment: Trypan-blue exclusion assay, A549; format: cell-based
[8] = system: HT29 (colon); experiment: Trypan-blue exclusion assay, HT29; format: cell-based
[9] = system: PC3 (prostate); experiment: Trypan-blue exclusion assay, PC3; format: cell-based
[10] = system: (HeLa) Henrietta Lacks cervical cancer cells; details: cited from earlier work
[11] = system: HEL (Human Embryonic Lung fibroplasts); details: cited from earlier work
[12] = system: HUVE cells; experiment: Apoptosis assay (Cell Death Detection ELISA PLUS); format: cell-based, human
Protocol: The compounds were dissolved in DMSO and further diluted with Endothelial Cell Growth Medium (PromoCell, Heidelberg, Germany) to obtain final concentrations as indicated. HUVE cells were seeded into each well of a 96-well cell culture plate at 10000 cells per well and incubated at 37° C. for 10 h with the indicated concentrations of each compound. The final volume was 100 μL per well. Control samples were incubated with the solvent alone. Each sample was repeated three times. The proapoptotic effect was detected by using the Cell Death Detection ELISA^PLUS kit (Roche Diagnostics GmbH, Mannheim, Germany) according to the manufactor's instructions. The kit constitutes a photometric enzyme-immunoassay for the qualitative and quantitative in vitro determination of cytoplasmic histone-associated-DNA-fragments (mono- and oligo-nucleosomes) after induced cell death. Due to the working procedure the kind of cell death (apoptosis or necrosis) […]. The absorption values A (A405nm-A490nm) measured give a quantitative indication of the induced amount of apoptosis/necrosis. The higher the absorption A, the higher the induction of apoptosis/necrosis at the corresponding concentrations of the compounds.

[13] = WST assay, cell viability; format: cell-based; details: human, HUVE (human umbilical vein endothelial) cells, 24 h incubation, read-out: IC50, cytotoxicity (WST assay)
Protocol: Cell viability was determined using the WST assay in HUVE (human umbilical vein endothelial) cells that measures metabolic activity of cells alive. Compound 17 was dissolved in DMSO and further diluted with Endothelial Cell Growth Medium (PromoCell, Heidelberg, Germany) to obtain a final concentration as indicated. HUVE cells (PromoCell, Heidelberg, Germany) were seeded into each well of a 96-well cell culture plate at 7000 cells per well and incubated at 37° C. for 24 h with the indicated concentrations of each compound. The final volume was 100 μL per well. Control samples were incubated with the solvent alone. Each experiment was repeated in triplicate. Afterwards the WST-1 reagent was added to the cells at 10 μL per well and the cells further incubated at 37° C. for additional 3 h. Then the cell culture plate was agitated thoroughly for 1 minute on a shaker at 200 U/min. The absorbance of each sample was measured using a microplate reader at 440 nm. The reference wavelength was 690 nm.

Row | SMILES | IC50 ([1]; Homo sapiens, MCF7) [µM] | IC50 ([2]; 96 h, CEM, 4 days incubation) [µM] | toxicity (body weight) compared to PBS control [3] | IC50 ([4]; Homo sapiens, HL60/ADR) [µM] | IC50 ([5]; Homo sapiens) [µM] | IC50 ([6]; Homo sapiens) [µM] | IC50 ([7]; Homo sapiens) [µM] | IC50 ([8]; Homo sapiens, HT-29) [µM] | IC50 ([9]; Homo sapiens, PC-3) [µM] | IC50 [4] [µM] | IC50 [6] [µM] | also measured
1 | CC(C)=CCC[C@]1(C)C=Cc2c(O)c3c(c(CC=C(C)C)c2O1)O[C@]12C(=C[C@@H]4C[C@H]1C(C)(C)O[C@@]2(C/C=C(/C)C(=O)O)C4=O)C3=O [gambogic acid] | 0.4 | 0.15 | some toxicity | 0.5 | 1.2 | 0.3 | 1.8 | 0.7 | 0.4 | – | – | –
2 | CC(C)=CCc1c(O)cc(O)c2c1O[C@]13C(=C[C@@H]4C[C@H]1C(C)(C)O[C@@]3(CC=C(C)C)C4=O)C2=O [Forbesione] | – | – | – | – | – | – | – | – | – | 2 | 2.2 | –
3 | CC(C)=CCc1c2c(c(O)c3c1O[C@]14C(=C[C@@H]5C[C@H]1C(C)(C)O[C@@]4(C/C=C(/C)C=O)C5=O)C3=O)C=CC(C)(C)O2 [morellin] | – | – | – | – | – | – | – | – | – | – | – | cytotoxicity against HeLa [10]: good cytotoxicity; cytotoxicity against HEL [11]: good cytotoxicity
4 | CC(C)=CCc1c2c(c(O)c3c1O[C@@]14C(=C[C@H]5CC1C(C)(C)O[C@]4(CC=C(C)C)C5=O)C3=O)C=CC(C)(C)O2 [desoxymorellin] | – | – | – | – | – | – | – | – | – | 1.1 | 1 | IC50 ([1]; MCF-7): 0.9 µM; IC50 [5]: 1.6 µM; IC50 [7]: 2.1 µM; IC50 ([8]; HT29): 1.2 µM; IC50 ([9]; PC3): 1.2 µM
5 | CC(C)=CCCC1(C)C=Cc2c(O)c3c(c(CC=C(C)C)c2O1)O[C@]12C(=CC4C[C@H]1C(C)(C)OC2(CC=C(C)C)C4=O)C3=O (stereo partly drawn) [gambogin] | 1.1 | – | – | 1.1 | 1 | 0.8 | 1.8 | 1 | 1.1 | – | – | IC50 ([2]; CEM-4, 96 h): 0.35 µM
6 | CC(C)=CCC12OC(C)(C)C3CC(C=C4C(=O)c5ccccc5OC431)C2=O (stereo not drawn) [Compound 17] | – | 0.3 | no significant toxicity | 1.4 | 2.2 | 1.5 | > 4 | 3.1 | – | – | – | subset of cells with necrosis ([12]; HUVE cells, concentrations >3 μM, 10 h): ~10%; cell necrosis ([12]; HUVE cells, concentrations lower than 1.5 μM, 10 h): not detected; HUVE cells undergoing apoptosis ([12]; after 10 h, dose-dependent): > 90%; IC50 at 24 h [13]: 1.38 µM

From US20100137421A1, “SMALL MOLECULE THERAPEUTICS, SYNTHESIS OF ANALOGUES AND DERIVATIVES AND METHODS OF USE” (priority 2006, published 2010)
